US20260263426A1, “DIAMIDINE ANALOGS FOR ANTI-INFLAMMATORY USE” (MONTDOREX INC., priority 2023, published 2026)

How the values were obtained:
endo-exonuclease = experiment: inhibition of endo-exonuclease activity, in-vitro; assay type: biochemical; details: read-out: EE IC50
From the text: The inhibition of endo-exonuclease has been measured using pentamidine and a pentamidine analog where the center site of pentamidine (the carbon backbone) has been altered. Endo-exonuclease inhibition has been tested in-vitro.

[1] = system: non-alcoholic fatty liver disease; details: mice; Zhao E et al (2017) Hepatology 66:922-935; cited from earlier work
HCT-116 = HCT-116 IC50 (Table 1); assay type: cell-based; details: Homo sapiens

Question: For `Cl.Cl.N=C(N)c1ccc(OCCCCCOc2ccc(C(=N)N)cc2)cc1` [Pentamidine HCl], which IC50 (endo-exonuclease) is on record?
Answer: 53.1 µM

Question: What about the body weight [1] of the same compound?
Answer: reduces

Question: What about the food intake [1] of the same compound?
Answer: reduces

Question: And the hepatic triglycerides [1]?
Answer: reduces

Question: What about the “serum ALT” value [1] of the same compound?
Answer: reduces

Question: What about the IC50 (HCT-116) of the same compound?
Answer: 107 µM

Question: Which IC50 (endo-exonuclease) does the source give for `N=C(N)c1ccc(OCCCCCCCCCCOc2ccc(C(=N)N)cc2)cc1` [Decamidine-isethionate] here?
Answer: 23.2 µM

Question: What about the IC50 (HCT-116) of the same compound?
Answer: 6.2 µM
